Reference: patent US20110214196A1, “DEVELOPMENT OF HERBICIDE-RESISTANT GRASS SPECIES” (University of Georgia Research Foundation, priority 2008, published 2011)

Experiments:
[1] = system: callus tissue generated from the variety 'Seaspray'; assay: Callus growth dose response to sethoxydim; assay type: cell-based, seashore paspalum (Paspalum vaginatum); conditions: growth averaged over three consecutive 3-week subcultures
Description: The dose response of paspalum tissue in culture to sethoxydim rate was determined using callus tissue generated from the variety ‘Seaspray’ as a model cultivar. Effect of sethoxydim concentration on callus growth was determined by placing callus tissue from ‘Seaspray’ on MS/B5 medium (Murashige and Skoog. 1962. supra; Gamborg et al. 1968. supra) containing 2 mg/L 2-4,D and one of eight concentrations of sethoxydim. Herbicide rates were replicated 6 times and included concentrations of 0, 2.5, 5, 7.5, 10, 25, 50, and 100 μM sethoxydim. Sethoxydim was diluted in methanol and added after the autoclaved medium was cooled to approximately 55° C. (in order to prevent loss of activity from heat degradation). The medium was protected from photo-degradation by wrapping containers in aluminum foil prior to storage.
To measure callus growth, 0.5 gram of callus tissue was weighed, separated into nine equal pieces and placed in a 3×3 pattern on the solid medium of each plate. Six replicate plates for each of the eight sethoxydim concentrations was distributed on a rack in a growth room in a completely randomized design. At 21 days after plating, the tissue from each plate was weighed and recorded. For subculture, 0.5 gram from each plate was obtained for the next growth period. This process was continued for nine weeks, providing three growth measurements for each plate. […]

[2] = system: Mauna Kea line regenerated from tissue culture (TCC); assay: Whole plant greenhouse dose-response, Poast herbicide (Example 9); assay type: in vivo, seashore paspalum (Paspalum vaginatum); conditions: for injury score: TCC
Text: (§1) A second greenhouse experiment was initiated to evaluate SR plants regenerated from a second sethoxydim-resistant cell line, Line B, for sethoxidim resistance at the whole plant level. In the previous experiment (Example 8), minor injury occurred on Line A at higher concentrations of Segment™ sethoxydim herbicide. These injury symptoms were more indicative of surfactant injury rather than sethoxydim injury. […] Plants were transplanted to Cone-tainers™ measuring 4×14 cm and tapering to 1 cm (Stuewe and Sons Inc., Corvallis, Oreg.) containing a 1:1 mix of Fafard® 3B mix and sand and placed on benches under sodium lights in a greenhouse with a 16-h photoperiod maintained at 27/32° C. day/night for approximately two weeks prior to application of herbicide treatments.
(§2) Each of the four genotypes (Line A, Line B, PT and TCC) were treated with 0, 50, 100, 200, 400, 800, 1600, 3200 and 6400 g ai ha^−1 rates of sethoxydim using Poast™ herbicide (BASF Corp., Florham Park, N.J.). All herbicide rates were applied at a spray volume of 1871 ha^−1 in an experimental spray chamber, and after drying, the plants were returned to the greenhouse bench and maintained under the conditions described above. Visual estimates of crop injury were recorded at 16, 21, and 28 d after treatment (DAT) using a scale of 0 to 100, where 0 equals no injury and 100 equals complete death. The experiment was a four by nine factorial with four genotypes and nine herbicide rates. Treatments were arranged in a randomized complete block design. Four replications were used for all four genotypes. Data were first analyzed using a two-way analysis of variance (SAS, 2008) and subsequently analyzed within herbicide rate. Differences among genotype means at each herbicide rate were determined using Fisher's Least Significant Difference (LSD).

[3] = system: original parental line, Mauna Kea (PT); assay: as above; assay type: in vivo, seashore paspalum (Paspalum vaginatum)
Text: as §1, §2

[4] = system: sethoxydim-resistant Line A; assay: as above; assay type: in vivo, seashore paspalum (Paspalum vaginatum)
Text: as §1, §2

[5] = system: sethoxydim-resistant Line B; assay: as above; assay type: in vivo, seashore paspalum (Paspalum vaginatum)
Text: as §1, §2

[6] = system: Large crabgrass (Digitaria sanguinalis); assay: Large crabgrass dose response study, plants from sod farm seed; assay type: in vivo
Description: (§3) Plants were grown from seed collected from a turfgrass sod farm near where sethoxydim had been continuously used for twelve years. Seeds were planted in 250 mL styrofoam cups with a potting mixture of pure sand in a glasshouse with supplemental lighting (300 uE/m2/s) and 30/25 temperature. Plants were watered once daily and fertilized once a week. Large crabgrass plants were treated with herbicides when 3-5 cm tall in a dose response study. Four herbicides (sethoxydim, fluazifop, clethodim, and pinoxaden) were applied at […]. Plant injury was observed 7 and 14 DAT. The experimental design consisted of a randomized complete block design with three replications. The experiment was replicated in time.

[7] = system: Large crabgrass (Digitaria sanguinalis) F2; assay: Large crabgrass dose response study, F2 from self-pollinated surviving plants; assay type: in vivo
Description: as §3
In response to all four herbicides, the plants initially illutrated typical ACCase symptomology, but recovered in 7-14 days after treatment (DAT). […] Seeds from self-pollinated surviving large crabgrass plants were collected and analyzed using the same dose response design as state before. […] The ED50 was approximately 10 times greater for the resistant (R) population than that for the wild type (S) population.

[8] = system: bermudagrass; assay: Controlling weedy species in a plot of bermudagrass and sethoxydim-resistant seashore paspalum; assay type: in vivo
Description: (§4) A plot containing both bermudagrass and sethoxydim-resistant seashore paspalum is treated with 150 g a.i. ha^−1 sethoxydim once a week over a period of three months. Over the three month treatment period, it is observed that the bermudagrass slowly dies out while the sethoxydim-resistant paspalum continues to thrive, leaving the plot populated with above 80% sethoxydim-resistant paspalum.
as §4, with “treated with both 150 g” for “treated with 150 g”, “ha^−1 sethoxydim and 150 g a.i. ha^−1 fenoxaprop once a” for “ha^−1 sethoxydim once a”

[9] = at rates of 400 g ai ha^−1, scale of 0 to 100
[10] = at rates of 1600 g ai ha^−1 or more
[11] = all rates up to 6400 g ai ha^−1

`CCC/C(=N\OCC)C1=C(O)CC(CC(C)SCC)CC1=O` (centres unmarked) [sethoxydim, 2-[1-(ethoxyimino)-butyl]-5-[2-(ethylthio)propyl]-3-hydroxy-2-cylohexen-1-one] was tested, and the “lowest herbicide rate to totally inhibit callus growth” value [1] was 7.5 µM, the LD50 ([2]; TC) was 782 g ai ha^−1 and the injury score [2, 9] was at least 27. It also gave an injury score [2, 10] of at least 80%, an LD50 [3] of 720 g ai ha^−1 and an injury score [3, 9] of at least 27. The injury score [3, 10] was at least 80%, the LD50 [4] was over 6400 g ai ha^−1 and the “maximum injury score observed” value [4, 11] was “less than 20%”. For the same compound, the LD50 [5] was over 6400 g ai ha^−1, the “maximum injury score observed” value [5, 11] was “less than 20%” and the “resistance or susceptibility of this population of large crabgrass” value ([6]; conclusion from ED50 values) was “resistant”. For the same compound, the “ED50 of resistant (R) population relative to wild type (S) population” value ([6]; crabgrass, FIG. 17) was “approximately 10 times”, the “effective dose required to cause 50% injury (ED50)” value ([6]; large crabgrass grown from sod farm seed, treated when 3-5 cm tall) was 245±37 g ai/ha and the “effective dose required to cause 50% injury (ED50)” value [7] was 179±4 g ai/ha. For the same compound, the “plot populated with sethoxydim-resistant paspalum; bermudagrass slowly dies out” value ([8]; 150 g a.i. ha^−1 sethoxydim and 150 g a.i. ha^−1 fenoxaprop once a week over three months) was “above 80%” and the “plot populated with sethoxydim-resistant paspalum; bermudagrass slowly dies out” value ([8]; 150 g a.i. ha^−1 sethoxydim once a week over three months) was “above 80%”.
